How the values were obtained:
[1] = biological target: T1, RORγ ligand binding domain (Homo sapiens, UniProt P51449); assay: RORγ radioligand competition binding assay (SPA); details: competition with tritiated 2-(4-(ethylsulfonyl)phenyl)-N-(4-(2-(methoxymethyl)phenyl)thiophen-2-yl)acetamide (25 nM), hRORγ LBD
Excerpt: RORγ Radioligand Competition Binding Assay The aim of this assay is to identify compounds which bind to the RORγ ligand binding domain, by competing with tritiated 2-(4-(ethylsulfonyl)phenyl)-N-(4-(2-(methoxymethyl)phenyl)thiophen-2-yl)acetamide. Human RORγ (Ligand Binding Domain (RORγ LBD) was expressed in E. coli (BL21DE3 Star) as a fusion protein: N-6×HN-Avi-GST-TCS-hRORγ LBD (S258-K518) subcloned into pET24a(+). The LBD (258-518) is underlined in the protein sequence: The scintillation proximity assay (SPA) was run in white polystyrene flat-bottom 384-well plates (Greiner, cat. No. 781075). Assays were carried out in 40 μl reaction volumes. Various concentrations of test ligands in 0.4 microlitres of DMSO were added to assay plates using an acoustic liquid dispenser. 4 nM purified N-(HN)6-GST-TCS-hRORγ (258-518) was mixed with 40 micrograms Yttrium oxide (YOx) glutathione SPA imaging beads in assay buffer (20 mM Tris, 150 mM NaCl, 10% Glycerol, 0.25% CHAPS, 1 mM TCEP) prior to adding 30 microlitres to test ligands. Assay plates were incubated for one hour at room temperature before adding 10 microlitres tritiated 2-(4-(ethylsulfonyl)phenyl)-N-(4-(2-(methoxymethyl)phenyl)thiophen-2-yl)acetamide to test plates in assay buffer (final concentration, 25 nM). Test plates were incubated for 16 hours and read using a LEADseeker Multimodality imaging instrument. The raw data was analysed and IC50 and Ki values for the compounds were calculated using Genedata Screener software. Raw data was transformed to % effect using equation 1: Compound % effect=100*[(X−min)/(max−min)], where X represents the normalized value for the compound based on the Min (vehicle) and Max (reference compound) inhibition controls. The concentration of test ligand that inhibited radioligand binding by 50% (i.e., the IC50) was calculated by plotting the % effect versus test ligand concentration and fitting the data using the Genedata Screener Smart fit algorithm. Ki is calculated from the IC50 value using the equation Ki=IC50/1+[L]/Kd) where [L]=25 nmol/L and Kd=17 nmol/L

human TH17 cells = assay: Inhibition of IL-17 release from human TH17 cells; type: cell-based; details: 96 h; isolated human TH17 cells cultured 4 days, IL-17A in supernatant by HTRF; read-out: pIC50 IL-17 release (converted)
Excerpt: Inhibition of IL-17 Release from Human TH17 Cells
This test is designed to screen compounds for their inhibitory effect on the release of IL-17 from isolated and cultured human TH17 cells.
Peripheral blood mononuclear cells (PBMC) were isolated from heparin treated human whole blood from healthy donors by density gradient centrifugation. TH17 cells (CD4+CXCR3−CCR6+) were enriched using a human TH17 Cell Enrichment Kit (Stemcell Technologies) according to the manufacturer's protocol. The isolated TH17 cells were activated with aCD3aCD28 beads (MACS Miltenyi) and cultured in X-Vivo15 medium (Lonza) supplemented with L-glutamine, β-mercaptoethanol and a cytokine cocktail consisting of; IL-2, IL-23, IL-1β, IL-6, TGF-β. Cells were seeded at 8000 cells/well in a 384-plate (Corning, #3707) in the presence of compounds or DMSO and cultured for 4 days (37° C., 5% CO2). On day 4 supernatants were collected and IL-17A was measured using a Human IL-17 HTRF Assay kit (Cisbio Bioassays) according to the manufacturer's protocol. The IC50 values for the tested compounds was calculated using Genedata Screener® software (Genedata) using the following calculation method; Compound % effect=100*[(X−min)/(max−min)], where X represents the normalized value for the compound based on the Min (DMSO) and Max (compound 3-(1,3-benzodioxol-5-yl)-1-(3,5-dimethylpiperidin-1-yl)-3-(2-hydroxy-4,6-dimethoxyphenyl)propan-1-one at 10 μM, described in J. R. Hu et al. ACS Med. Chem. Lett. 2013, 4, 79-84) inhibition controls. Results

[2] = biological target: T1, RORγ ligand binding domain; assay: RORγ co-factor recruitment assay (FRET); type: biochemical; set-up: made in house; host or cells: E. coli BL21DE3 Star; details: inhibition of recruitment of SRC-1 peptide (NCOA1_677-700) to hRORγ LBD, HTRF read-out
Excerpt: RORγ Co-Factor Recruitment Assay A high throughput coactivator binding assay for the identification of inverse agonists of the recruitment of peptide SRC-1 (NCOA1_677-_700) to the RORγ ligand binding domain was established. The ligand binding domain (LBD) of human RORγ was expressed in E. coli (BL21DE3 Star) as a fusion protein: N-6×HN-MBP-Avi-TCS-hRORγLBD(P260-K518) subcloned into pET24a(+). The LBD (P260-K518) is underlined in the protein sequence: The assay was run in black 384 well plates (Greiner cat no: 784900). Various concentrations of test ligands in 0.1 microlitres DMSO were dispensed to assay plates using an Echo acoustic dispenser. Two pre-mixes were prepared and incubated for 1 h at room temp in the dark. Pre-mix 1 comprised 100 nM Protein (Biotinylated HN-Avi-MBP-TCS-hRORγ (258-518)) and 60 nM Streptavidin APC in assay buffer, 50 mM MOPS pH7.4, 50 mM KF, 0.003% (w/v) CHAPS, 10 mM DTT and 0.01% (w/v) BSA and pre-mix 2 comprised 160 nM biotinylated SRC-1 peptide (NCOA1-677-700) and 20 nM Europium-W8044 labelled Streptavidin in assay buffer. Five microlitres of pre-mix 2 was dispensed to assay plates containing 0.1 microlitres of test compound and was incubated for 15 min prior to adding five microlitres of pre-mix 1. Plates were incubated at rt for 1 hour in the dark, prior to reading in a Pherastar multi-mode plate reader using HTRF filter set (ex 320, em 612 and 665). The FRET signal at 665 nm was divided by the signal at 612 nm and multiplied by 10,000 to generate a signal ratio value for each well. The raw data was transformed to % effect using the equation: Compound % effect=100*[(X−min)/(max−min)], where X represents the normalized value for the compound based on the Min (vehicle) and Max (reference compound) inhibition control. The concentration of test ligand that inhibited the activity by 50% (i.e., the IC50) was calculated by plotting the % effect versus test ligand concentration and fitting the data using the Genedata Screener Smart fit algorithm.

Compound	IC50 [1] [nM]	IC50 (human TH17 cells) [nM]	IC50 [2] [nM]
CC(=O)N1Cc2cc(S(C)(=O)=O)ccc2C1C(=O)Nc1ccc(C(C#N)(C(F)(F)F)C(F)(F)F)cc1 (stereo not drawn) [Example 2, 2-Acetyl-N-[4-(2-cyano-1,1,1,3,3,3-hexafluoropropan-2-yl)phenyl]-5-(methylsulfonyl)-2,3-dihydro-1H-isoindole-1-carboxamide]	15.8	10	126
COC1(C(=O)N2Cc3cc(S(C)(=O)=O)ccc3C2C(=O)Nc2ccc(C(C#N)(C(F)(F)F)C(F)(F)F)cc2)CC1 (stereo not drawn) [Example 3, N-[4-(2-Cyano-1,1,1,3,3,3-hexafluoropropan-2-yl)phenyl]-2-[(1-methoxycyclopropyl)carbonyl]-5-(methylsulfonyl)-2,3-dihydro-1H-isoindole-1-carboxamide]	20	15.8	251
CNC(=O)N1Cc2cc(S(C)(=O)=O)ccc2C1C(=O)Nc1ccc(C(C#N)(C(F)(F)F)C(F)(F)F)cc1 (stereo not drawn) [Example 4, N^1-[4-(2-Cyano-1,1,1,3,3,3-hexafluoropropan-2-yl)phenyl]-N^2-methyl-5-(methylsulfonyl)-1,3-dihydro-2H-isoindole-1,2-dicarboxamide]	12.6	7.94	63.1
CS(=O)(=O)c1ccc2c(c1)CN(C(=O)CO)C2C(=O)Nc1ccc(C(C#N)(C(F)(F)F)C(F)(F)F)cc1 (stereo not drawn) [Example 5, N-[4-(2-Cyano-1,1,1,3,3,3-hexafluoropropan-2-yl)phenyl]-2-(hydroxyacetyl)-5-(methylsulfonyl)-2,3-dihydro-1H-isoindole-1-carboxamide]	12.6	10	50.1
CC(=O)N1Cc2cc(S(C)(=O)=O)ccc2C1C(=O)Nc1ccc(C(N2CCCC2)(C(F)(F)F)C(F)(F)F)cc1 (stereo not drawn) [Example 15, 2-Acetyl-N-{4-[1,1,1,3,3,3-hexafluoro-2-(pyrrolidin-1-yl)propan-2-yl]phenyl}-5-(methylsulfonyl)-2,3-dihydro-1H-isoindole-1-carboxamide]	5.01	3.98	39.8
COCCNC(c1ccc(NC(=O)C2c3ccc(S(C)(=O)=O)cc3CN2C(C)=O)cc1)(C(F)(F)F)C(F)(F)F (stereo not drawn) [Example 17, 2-Acetyl-N-(4-{1,1,1,3,3,3-hexafluoro-2-[(2-methoxyethyl)amino]propan-2-yl}phenyl)-5-(methylsulfonyl)-2,3-dihydro-1H-isoindole-1-carboxamide]	31.6	20	100
COC1(CNC(c2ccc(NC(=O)C3c4ccc(S(C)(=O)=O)cc4CN3C(C)=O)cc2)(C(F)(F)F)C(F)(F)F)CC1 (stereo not drawn) [Example 18, 2-Acetyl-N-[4-(1,1,1,3,3,3-hexafluoro-2-{[(1-methoxycyclopropyl)methyl]amino}propan-2-yl)phenyl]-5-(methylsulfonyl)-2,3-dihydro-1H-isoindole-1-carboxamide]	50.1	25.1	200
CC(=O)N1Cc2cc(S(C)(=O)=O)ccc2C1C(=O)Nc1ccc(C(NC2COC2)(C(F)(F)F)C(F)(F)F)cc1 (stereo not drawn) [Example 19, 2-Acetyl-N-{4-[1,1,1,3,3,3-hexafluoro-2-(oxetan-3-ylamino)propan-2-yl]phenyl}-5-(methylsulfonyl)-2,3-dihydro-1H-isoindole-1-carboxamide]	126	50.1	100
CC(=O)N1Cc2cc(S(C)(=O)=O)ccc2C1C(=O)Nc1ccc(C(NC2CCOCC2)(C(F)(F)F)C(F)(F)F)cc1 (stereo not drawn) [Example 20, 2-Acetyl-N-{4-[1,1,1,3,3,3-hexafluoro-2-(tetrahydro-2H-pyran-4-ylamino)propan-2-yl]phenyl}-5-(methylsulfonyl)-2,3-dihydro-1H-isoindole-1-carboxamide]	100	50.1	100
CC(=O)N1Cc2cc(S(C)(=O)=O)ccc2C1C(=O)Nc1ccc(C(NCCO)(C(F)(F)F)C(F)(F)F)cc1 (stereo not drawn) [Example 21, 2-Acetyl-N-(4-{1,1,1,3,3,3-hexafluoro-2-[(2-hydroxyethyl)amino]propan-2-yl}phenyl)-5-(methylsulfonyl)-2,3-dihydro-1H-isoindole-1-carboxamide]	316	100	126

Further lines, results first:

IC50 [1] [nM]	IC50 (human TH17 cells) [nM]	IC50 [2] [nM]	Compound
200	100	126	CS(=O)(=O)c1ccc2c(c1)CNC2C(=O)Nc1ccc(C(C#N)(C(F)(F)F)C(F)(F)F)cc1 (stereo not drawn) [Example 1, N-[4-(2-Cyano-1,1,1,3,3,3-hexafluoropropan-2-yl)phenyl]-5-(methylsulfonyl)-2,3-dihydro-1H-isoindole-1-carboxamide]
7.94	25.1	100	N#CC(c1ccc(NC(=O)C2NCc3cc(S(=O)(=O)CC4CC4)ccc32)cc1)(C(F)(F)F)C(F)(F)F (stereo not drawn) [Example 12, N-[4-(2-Cyano-1,1,1,3,3,3-hexafluoropropan-2-yl)phenyl]-5-[(cyclopropylmethyl)sulfonyl]-2,3-dihydro-1H-isoindole-1-carboxamide]
6.31	5.01	63.1	CC(=O)N1Cc2cc(S(=O)(=O)CC3CC3)ccc2C1C(=O)Nc1ccc(C(C#N)(C(F)(F)F)C(F)(F)F)cc1 (stereo not drawn) [Example 13, 2-Acetyl-N-[4-(2-cyano-1,1,1,3,3,3-hexafluoropropan-2-yl)phenyl]-5-[(cyclopropylmethyl)sulfonyl]-2,3-dihydro-1H-isoindole-1-carboxamide]
5.01	2.51	39.8	CCS(=O)(=O)c1ccc2c(c1)CN(C(C)=O)C2C(=O)Nc1ccc(C(C#N)(C(F)(F)F)C(F)(F)F)cc1 (stereo not drawn) [Example 14, 2-Acetyl-N-[4-(2-cyano-1,1,1,3,3,3-hexafluoropropan-2-yl)phenyl]-5-(ethylsulfonyl)-2,3-dihydro-1H-isoindole-1-carboxamide]

Reference: patent US11034654B2, “2,3-dihydroisoindole-1-carboxamides useful as ROR-gamma modulators” (AstraZeneca AB, priority 2017, dated 2021)
